# Test results reported in patent publication US20170202219A1, “CLOQUINTOCET SALTS FOR SAFENING PYROXSULAM COMPOSITIONS” (Dow AgroSciences LLC, priority 2016, published 2017).
# Like-named read-outs stand apart in the source and are kept apart here.
# Columns and labels:
# [1] = test system: durum wheat (Triticum durum L. TRZDU); settings: pyroxsulam:cloquintocet (AE) 1:2.1, postemergence spray
# [2] = test system: cell membranes
# [3] = test system: wild oats (Avena fatua L., AVEFA); test: Greenhouse evaluation, control of wild oats; type: in vivo; settings: pyroxsulam:cloquintocet (AE) 1:2.1, postemergence spray
# Excerpt: A peat based potting soil, Metro-mix 360, (produced by Sun Gro Horticulture Canada CM Ltd) was used as the soil media for this test. Metro-mix 360 is a growing medium consisting of Canadian sphagnum peat moss, coarse perlite, bark ash, starter nutrient charge (with gypsum) and slow release nitrogen and dolomitic limestone. Several seeds of each crop or weed species were planted in 10 cm square pots and top watered twice daily. Plant material was propagated in greenhouse zone E2 at temperatures ranging from 18 to 20° C. and 50 to 60% relative humidity. Natural light was supplemented with 1000-watt metal halide overhead lamps with an average illumination of 500 microeinsteins per square meter per second (μE m^−2 s^−1) photosynthetic active radiation (PAR). Day length was 16 hours. Plant material was top-watered prior to treatment and sub-irrigated after treatment.
# Herbicides were applied with a track sprayer manufactured by Allen Machine Works and located in building 306, room E1-483, at the Dow AgroSciences Indianapolis, Ind. Global Headquarters site (9330 Zionsville Road, Indianapolis, Ind., USA). The track sprayer was calibrated to deliver 50 L/ha at 40 psi (262 kPa) pressure utilizing an 8001E even flat fan nozzle tip with a speed of 1.6 mph (2.6 km/h). The nozzle height was 46 cm above the plant canopy. Appropriate amounts of formulated product were added to vials as calculated by the software package ARM8 (Gylling Data Management Inc.). The vials contained a pH 7 phosphate buffer (Fischer Scientific) and the herbicide aliquots were diluted to a total volume of 60 ml. The growth stage of the crop and weed species at application was 2 to 4 leaf (Table 11). The application rates were 0, 17.8 and 37.6 g ai/ha of pyroxsulam for crop tolerance comparisons and 0, 2.35 and 4.7 g ai/ha of pyroxsulam for weed control comparisons. Cloquintocet was applied at a 1:2.1 ratio of pyroxsulam (g ai):cloquintocet (g ae) in all treatments containing the safener. Treatments were replicated 4 times. Plants were returned to the greenhouse after treatment and sub-watered throughout the duration of the experiment. Plant material was fertilized twice weekly with Hoagland's fertilizer solution that is readily available in the greenhouses. Percent visual injury assessments were made on a scale of 0 to 100% as compared to the untreated control plants (where 0 is equal to no injury and 100 is equal to complete death of the plant.
# Visual determination of the control of wild oats (Avena fatua L., AVEFA) treated with pyroxsulam alone and with several forms of cloquintocet was conducted. All forms of cloquintocet were applied at a 1:2.1 weight ratio of pyroxsulam:cloquintocet (AE).
# [4] = test system: spring wheat (Triticum aestivum L., TRZAS); settings: pyroxsulam:cloquintocet (AE) 1:2.1, postemergence spray
# [5] = Water solubility of cloquintocet salts at 20° C.
# [6] = test system: cell membranes; test: Neutral Red Release (NRR) assay, eye irritation potential of aqueous CQC salt solutions; settings: for NRR50, mg ae/mL: aqueous solution of the CQC salt diluted in PBS, NRR50 corrected to CQC acid equivalent concentration
# [7] = test system: cell membranes; remark: listed apart in the source
# [8] = solubility solution, water, 20° C.
compound,measurement,setting,value
CC(O)CN (centres unmarked) [Isopropanolamine],TRZDU Injury 22 DAA (% Injury),[1]; pyroxsulam 18.8 g ai/ha,9 % Injury
same,TRZDU Injury 22 DAA (% Injury),[1]; pyroxsulam 37.6 g ai/ha,12 % Injury
same,NRR50 (% v/v),[2],29 % v/v
same,"NRR50, mg ae/mL",[2],56 mg ae/mL
same,AVEFA Control 21 DAA (% Control),[3]; pyroxsulam 2.35 g ai/ha,80 % Control
same,AVEFA Control 21 DAA (% Control),[3]; pyroxsulam 4.7 g ai/ha,90 % Control
same,TRZAS Injury 22 DAA (% Injury),[4]; pyroxsulam 18.8 g ai/ha,2 % Injury
same,TRZAS Injury 22 DAA (% Injury),[4]; pyroxsulam 37.6 g ai/ha,20 % Injury
same,Density,[5],1.1 g/mL
same,Neat pH,[5]; [8],7.4
CCNCC [Diethylamine],TRZDU Injury 22 DAA (% Injury),[1]; pyroxsulam 18.8 g ai/ha,12 % Injury
same,TRZDU Injury 22 DAA (% Injury),[1]; pyroxsulam 37.6 g ai/ha,18 % Injury
same,AVEFA Control 21 DAA (% Control),[3]; pyroxsulam 2.35 g ai/ha,88 % Control
same,AVEFA Control 21 DAA (% Control),[3]; pyroxsulam 4.7 g ai/ha,99 % Control
same,TRZAS Injury 22 DAA (% Injury),[4]; pyroxsulam 18.8 g ai/ha,5 % Injury
same,TRZAS Injury 22 DAA (% Injury),[4]; pyroxsulam 37.6 g ai/ha,15 % Injury
CNC [Dimethylamine],TRZDU Injury 22 DAA (% Injury),[1]; pyroxsulam 18.8 g ai/ha,9 % Injury
same,TRZDU Injury 22 DAA (% Injury),[1]; pyroxsulam 37.6 g ai/ha,15 % Injury
same,AVEFA Control 21 DAA (% Control),[3]; pyroxsulam 2.35 g ai/ha,88 % Control
same,AVEFA Control 21 DAA (% Control),[3]; pyroxsulam 4.7 g ai/ha,90 % Control
same,TRZAS Injury 22 DAA (% Injury),[4]; pyroxsulam 18.8 g ai/ha,11 % Injury
same,TRZAS Injury 22 DAA (% Injury),[4]; pyroxsulam 37.6 g ai/ha,11 % Injury
same,Density,[5],1.2 g/mL
same,Neat pH,[5],6
"COc1cc(OC)n2nc(NS(=O)(=O)c3c(C(F)(F)F)ccnc3OC)nc2n1 [Pyroxsulam, N-(5,7-dimethoxy [1,2,4]triazolo [1,5-a]pyrimidin-2-yl)-2-methoxy-4-(trifluoromethyl)pyridine-3-sulfonamide]",AVEFA Control 21 DAA (% Control),[3]; pyroxsulam 2.35 g ai/ha,86 % Control
same,AVEFA Control 21 DAA (% Control),[3]; pyroxsulam 4.7 g ai/ha,98 % Control
"CCCCCC(C)OC(=O)COc1ccc(Cl)c2cccnc12 (centres unmarked) [mexyl, cloquintocet-mexyl, reference compound]",AVEFA Control 21 DAA (% Control),[3]; pyroxsulam 2.35 g ai/ha,71 % Control
same,AVEFA Control 21 DAA (% Control),[3]; pyroxsulam 4.7 g ai/ha,84 % Control
NCCO [Monoethanolamine],Density,[5]; [8],1.1 g/mL
same,Neat pH,[5]; [8],6.3
"CCCCCCCCCCCCOS(=O)(=O)[O-].[Na+] [SDS, Sodium dodecyl sulfate]",NRR assay result of positive control,"[6]; 5 mg/ml, two independent assay replicates",positive
"CN(C)CCO [N,N-dimethylethanolamine]",Neat pH,[5]; [8],5.7
cloquintocet choline salt,TRZDU Injury 22 DAA (% Injury),[1]; pyroxsulam 18.8 g ai/ha,9 % Injury
same,TRZDU Injury 22 DAA (% Injury),[1]; pyroxsulam 37.6 g ai/ha,12 % Injury
same,AVEFA Control 21 DAA (% Control),[3]; pyroxsulam 2.35 g ai/ha,94 % Control
same,AVEFA Control 21 DAA (% Control),[3]; pyroxsulam 4.7 g ai/ha,99 % Control
same,TRZAS Injury 22 DAA (% Injury),[4]; pyroxsulam 18.8 g ai/ha,6 % Injury
same,TRZAS Injury 22 DAA (% Injury),[4]; pyroxsulam 37.6 g ai/ha,21 % Injury
same,"NRR50, mg ae/mL",[6],213 mg ae/mL
same,Density,[5],1.1 g/mL
same,Neat pH,[5],6.8
"O=C(O)COc1ccc(Cl)c2cccnc12 [Acid, Cloquintocet]",AVEFA Control 21 DAA (% Control),[3]; pyroxsulam 2.35 g ai/ha,96 % Control
same,AVEFA Control 21 DAA (% Control),[3]; pyroxsulam 4.7 g ai/ha,99 % Control
same,"NRR50, mg ae/mL",[7],9 mg ae/mL
same,Calculated water solubility wt % ai,"[5]; pH 7 buffer solution, 20° C.",1.4 wt % ai
same,Density,"[5]; pH 7 buffer solution, 20° C.",1.0 g/mL
same,Neat pH,"[5]; pH 7 buffer solution, 20° C.",5.6
same,Water Solubility wt % ae,"[5]; pH 7 buffer solution, 20° C.",1.4 wt % ae
same,Water Solubility wt % ae,"[5]; pH 7 buffer solution, 20° C., listed as CQC acid",about 1.4 wt % ae
OCCNCCO [Diethanolamine],AVEFA Control 21 DAA (% Control),[3]; pyroxsulam 2.35 g ai/ha,88 % Control
same,AVEFA Control 21 DAA (% Control),[3]; pyroxsulam 4.7 g ai/ha,94 % Control
CC(C)NC(C)C [Diisopropylamine],Density,[5],1.1 g/mL
same,Neat pH,[5],5.9
Ammonium [reference compound],"NRR50, mg ae/mL",[6],3 mg ae/mL
same,Density,[5]; [8],1.0 g/mL
same,Neat pH,[5]; [8],5.7
CC(O)CNCC(C)O (centres unmarked) [Diisopropanolamine],Density,[5]; [8],1.1 g/mL
same,Neat pH,[5]; [8],6.4
CC(C)N [Isopropylamine],AVEFA Control 21 DAA (% Control),[3]; pyroxsulam 2.35 g ai/ha,90 % Control
same,AVEFA Control 21 DAA (% Control),[3]; pyroxsulam 4.7 g ai/ha,99 % Control
same,Density,[5],1.1 g/mL
same,Neat pH,[5],5.7
